Test results as given in US20110237535A1, “Use of Induced Pluripotent Cells and other Cells for Screening Compound Libraries” (priority 2010, published 2011).
Entries after “also recorded” stand apart in the source; their conditions may differ. Where two headings read alike, the source gives them in different places.

What was measured:
HeLa cells = assay type: cell-based
Description: In another experiment HeLa cells were treated with 100 uM of tamoxifen (a calcium influx stimulator), doxorubicin (a DNA damaging agent), cycloheximide (a protein synthesis inhibitor), digitonin (a mild detergent), and a buffer, and monitored every 15 minutes on a BIND™ Reader for 40 hours in a 37° C. incubator. The cytotoxic compounds each have distinct mechanisms of action that have distinct kinetic profiles in the assays of the invention. Toxins can be tested for their effect on differing types of cells and can be placed into a class or sub-class of toxins (e.g. calcium influx stimulator) based on their kinetic profiles. These assays have a higher throughput than electrical impedance testing for screening and profiling of toxic compounds.

[1] = system: Murine embryonic stem cell-derived cardiomyocytes; assay: Beating amplitude and frequency of cardiomyocytes, PWV at 4 reads per second; assay type: cell-based
Description: Murine embryonic stem cell-derived cardiomyocytes were added to wells of a biosensor and a BIND™ Reader recorded PWVs at the rate of 4 reads per second. One well was treated with KCl and another well was not treated. The cells beat synchronously when cultured on BIND™ optical biosensors and the frequency of the beating can be detected. […] The BIND™ Reader detects beating frequency and rate as oscillations of positive-negative PWV shifts. Kinetic PWV profiles can be used to accurately measure beating rate and frequency. Therefore, the assay provides an ultra high-throughput assay to measure off-target drug effects on cardiotoxicity and contractility.
In another experiment the cardiomyocytes were plated at 20,000 cells per well on fibronectin coated biosensor plates. The cells were incubated for 72 h at 37° C. before the experiment. The cells were monitored for 3 minutes before KCl was added to 50 mM final concentration.
In another experiment cardiomyocytes were treated for 17 hours with several different concentrations of doxorubicin (10 μM, 1 μM, 0.1 μM, 0.01 μM, and 0 μM). The beating amplitude and frequency was measured at 4 reads/second prior to doxorubicin treatment, then again after the 17 hour doxorubicin incubation.

cardiomyocytes = assay: Cardiomyocyte beating recorded with refined high-speed BIND Cartridge Reader; assay type: cell-based; conditions: 6, 10 and 15 minutes after addition, FIG. 17
Source text: An Ocean Optics HT2000+ spectrometer in a BIND™ Cartridge Reader was altered so that the slit that allows light into the spectrometer was widened, allowing more light to enter the enter the spectrometer. Therefore, recordings of up to 1000 Hz, i.e. up to 1000 readings/second can be obtained when the BIND™ Cartridge Reader is “parked” (i.e., the BIND™ Cartridge Reader remains in one position over, e.g., a well holding cells). The recordings are made continually in real-time. Recordings can be taken at about 2, 4, 10, 50, 80, 100, 250, 280, 300, 400, 500, 600, 700, 800, 900, 1,000 or more Hz (or any range between about 2 and about 1,000 Hz).
The refined BIND™ Cartridge Reader was used to take measurements of cardiomyocyte beating. […] By comparison, the data in Examples 1 and 2 was measured at 4 Hz. The increased sampling rate allows a much more refined look at the shape of each individual beat. Different beating “phenotypes” can be determined from well-to-well, in addition, the difference between synchronous beating across the well and asynchronous beating can be determined. […]
Amitriptyline is a tricyclic antidepressant sold under the trade name Elavil™. […] Amitriptyline was added to cardiomyocytes that were beating in culture and PWVs were constantly monitored. […]

[2] = system: mES-derived cardiomyocytes (Cor.At); assay: Doxorubicin toxicity on mES-derived cardiomyocytes, constant PWV monitoring; assay type: cell-based, murine
Description: mES-derived cardiomyocytes (Cor.At) were obtained from Axiogenesis/Lonza. 5,000 cells per well were plated on fibronectin-coated 384 well biosensor plates for 24 h before experiment. These cells beat in culture. Cells were treated with doxorubicin for 17 h at 37° C. with constant monitoring using the BIND™ Reader. […] There is an oscillation of PWVs that indicates the beating of the cells. The amplitude of the beating becomes stronger over time. That is, there is Y axis spread of the PWV reading grows larger over time as the cells beat stronger in culture.

[3] = FIG. 6-9, cell line not restated in these blocks
[4] = KCl-treated well vs untreated well, FIG. 11

| Molecule | kinetic profile (PWV over time) (HeLa cells; [3]) | also measured |
| --- | --- | --- |
| 4-hydroxy-tamoxifen | faster onset of toxicity than tamoxifen | – |
| CC[C@@]1(O)C(=O)OCc2c1cc1n(c2=O)Cc2cc3ccccc3nc2-1 [Camptothecin] | somewhat different kinetic profile | – |
| N.N.[Cl][Pt][Cl] [Cisplatin] | sudden onset, steep decline, followed by a negative PWV plateau | – |
| [Cl-].[K+] [KCl] | – | rate and frequency of the beating ([1]; KCl 50 mM final concentration, added after 3 minutes of monitoring, 20,000 cells per well, FIG. 13): drastically reduced; amplitude of the beating [1, 4]: loss of amplitude of the beating; frequency of the beating [1, 4]: decrease in the frequency of the beating |
| CN(C)CCC=C1c2ccccc2CCc2ccccc21 [amitriptyline] | – | beating pattern after compound addition (cardiomyocytes): change from regular, synchronous beating to irregular, non-synchronous beating |
| COc1cccc2c1C(=O)c1c(O)c3c(c(O)c1C2=O)C[C@@](O)(C(=O)CO)C[C@@H]3O[C@H]1C[C@H](N)[C@H](O)[C@H](C)O1 [doxorubicin] | sudden onset, steep decline, followed by a negative PWV plateau | PWV readings ([2]; doxorubicin 17 h at 37° C., 5,000 cells per well, FIG. 10): PWV readings become negative; also recorded: dose dependant; amplitude of beating over time ([2]; doxorubicin 17 h at 37° C., FIG. 10A): becomes weaker over time; amplitude and frequency of beating ([1]; 17 hours doxorubicin at 10 μM, 1 μM, 0.1 μM, 0.01 μM, 0 μM, FIG. 14): disrupted by doxorubicin in a concentration-dependent manner |
| CO[C@@]12[C@H](COC(N)=O)C3=C(C(=O)C(C)=C(N)C3=O)N1C[C@@H]1N[C@@H]12 [mitomycin] | sudden onset, steep decline, followed by a negative PWV plateau | – |
| [K+].[K+].[O]=[Cr](=[O])([O-])[O][Cr](=[O])(=[O])[O-] [potassium dichromate] | – | kinetic profile (PWV over time) (HeLa cells): sudden onset, steep decline, followed by a negative PWV plateau |
| O=C(c1ccc(OCCN2CCCCC2)cc1)c1c(-c2ccc(O)cc2)sc2cc(O)ccc12 [raloxifene] | lack of cytotoxic response | – |
| CC/C(=C(\c1ccccc1)c1ccc(OCCN(C)C)cc1)c1ccccc1 [tamoxifen] | sharp downward shift in PWV at early time points | – |
| CC[C@]1(O)C[C@@H]2CN(CCc3c([nH]c4ccccc34)[C@@](C(=O)OC)(c3cc4c(cc3OC)N(C)[C@H]3[C@@](O)(C(=O)OC)[C@H](OC(C)=O)[C@]5(CC)C=CCN6CC[C@]43[C@@H]65)C2)C1 [vinblastine] | rapid acute response and then a gradual negative PWV shift over the long term | – |
